Columns and labels:
Assay in all cases: relative viability (nuclei count vs DMSO), 5 days (fraction); higher = more cells survive
NCI-H2228 = system: NCI-H2228
Summary of the method: (§1)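 Cells from lung cancer lines were seeded into 1536-well plates and, one day later, dosed by pin tool. Treatments were either a single drug or a fixed dose of an anchor drug with five library-drug doses (not always all listed) in √10 steps. After 5 days, nuclei were stained in a one-step fixation (final 0.05% Triton X-100, 1% formaldehyde, 1 ug/ml Hoechst) and counted on 4× images, and relative viability is the treated-to-vehicle nuclei ratio, as the median of duplicate plates.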

NCI-H358 = system: NCI-H358
Summary of the method: as §1

LK-2 = system: LK-2
Summary of the method: as §1

NCI-H1355 = system: NCI-H1355
Summary of the method: as §1

NCI-H2087 = system: NCI-H2087
Summary of the method: as §1

LCLC-97TM1 = system: LCLC-97TM1
Summary of the method: as §1

NCI-H661 = system: NCI-H661
Summary of the method: as §1

NCI-H1395 = system: NCI-H1395
Summary of the method: as §1

CAL-12T = system: CAL-12T
Summary of the method: as §1

NCI-H322M = system: NCI-H322M
Summary of the method: as §1

SK-MES-1 = system: SK-MES-1
Summary of the method: as §1

LC-2-ad = system: LC-2-ad
Summary of the method: as §1

NCI-H1666 = system: NCI-H1666
Summary of the method: as §1

NCI-H838 = system: NCI-H838
Summary of the method: as §1

NCI-H1915 = system: NCI-H1915
Summary of the method: as §1

NCI-H2085 = system: NCI-H2085
Summary of the method: as §1

H3255 = system: H3255
Summary of the method: as §1

NCI-H1792 = system: NCI-H1792
Summary of the method: as §1

RERF-LC-KJ = system: RERF-LC-KJ
Summary of the method: as §1

UMC-11 = system: UMC-11
Summary of the method: as §1

NCI-H1651 = system: NCI-H1651
Summary of the method: as §1

PC-3 [JPC-3] = system: PC-3 [JPC-3]
Summary of the method: as §1

A-427 = system: A-427
Summary of the method: as §1

ABC-1 = system: ABC-1
Summary of the method: as §1

CCCCCCCCCCCC1=C(O)C(=O)C=C(O)C1=O [Embelin] + CC(=O)c1c(C)c2cnc(Nc3ccc(N4CCNCC4)cn3)nc2n(C2CCCC2)c1=O [Palbociclib] (partner 0.5 µM)
relative viability (NCI-H2228; first compound 0.08 µM): 0.824 | relative viability (NCI-H2228; first compound 0.8 µM): 0.865 | relative viability (NCI-H2228; first compound 2.53 µM): 0.68 | relative viability (NCI-H2228; first compound 8 µM): 0.834 | relative viability (NCI-H358; first compound 0.08 µM): 0.133 | relative viability (NCI-H358; first compound 0.8 µM): 0.161 | relative viability (NCI-H358; first compound 2.53 µM): 0.141 | relative viability (NCI-H358; first compound 8 µM): 0.131 | relative viability (LK-2; first compound 0.08 µM): 0.647 | relative viability (LK-2; first compound 0.8 µM): 0.753 | relative viability (LK-2; first compound 2.53 µM): 0.806 | relative viability (LK-2; first compound 8 µM): 0.702 | relative viability (NCI-H1355; first compound 0.08 µM): 0.411 | relative viability (NCI-H1355; first compound 0.8 µM): 0.416 | relative viability (NCI-H1355; first compound 2.53 µM): 0.398 | relative viability (NCI-H1355; first compound 8 µM): 0.366 | relative viability (NCI-H2087; first compound 0.08 µM): 0.236 | relative viability (NCI-H2087; first compound 0.8 µM): 0.227 | relative viability (NCI-H2087; first compound 2.53 µM): 0.266 | relative viability (NCI-H2087; first compound 8 µM): 0.248 | relative viability (LCLC-97TM1; first compound 0.08 µM): 0.184 | relative viability (LCLC-97TM1; first compound 0.8 µM): 0.215 | relative viability (LCLC-97TM1; first compound 2.53 µM): 0.262 | relative viability (LCLC-97TM1; first compound 8 µM): 0.242 | relative viability (NCI-H661; first compound 0.08 µM): 0.405 | relative viability (NCI-H661; first compound 0.8 µM): 0.419 | relative viability (NCI-H661; first compound 2.53 µM): 0.385 | relative viability (NCI-H661; first compound 8 µM): 0.364 | relative viability (NCI-H1395; first compound 0.08 µM): 0.599 | relative viability (NCI-H1395; first compound 0.8 µM): 0.623 | relative viability (NCI-H1395; first compound 2.53 µM): 0.65 | relative viability (NCI-H1395; first compound 8 µM): 0.563 | relative viability (CAL-12T; first compound 0.08 µM): 0.483 | relative viability (CAL-12T; first compound 0.8 µM): 0.538 | relative viability (CAL-12T; first compound 2.53 µM): 0.331 | relative viability (CAL-12T; first compound 8 µM): 0.553 | relative viability (NCI-H322M; first compound 0.08 µM): 0.456 | relative viability (NCI-H322M; first compound 0.8 µM): 0.528 | relative viability (NCI-H322M; first compound 2.53 µM): 0.493 | relative viability (NCI-H322M; first compound 8 µM): 0.512 | relative viability (SK-MES-1; first compound 0.08 µM): 0.366 | relative viability (SK-MES-1; first compound 0.8 µM): 0.374 | relative viability (SK-MES-1; first compound 2.53 µM): 0.321 | relative viability (SK-MES-1; first compound 8 µM): 0.297 | relative viability (LC-2-ad; first compound 0.08 µM): 0.433 | relative viability (LC-2-ad; first compound 0.8 µM): 0.442 | relative viability (LC-2-ad; first compound 2.53 µM): 0.535 | relative viability (LC-2-ad; first compound 8 µM): 0.516 | relative viability (NCI-H1666; first compound 0.08 µM): 0.638 | relative viability (NCI-H1666; first compound 0.8 µM): 0.624 | relative viability (NCI-H1666; first compound 2.53 µM): 0.641 | relative viability (NCI-H1666; first compound 8 µM): 0.681 | relative viability (NCI-H838; first compound 0.08 µM): 0.249 | relative viability (NCI-H838; first compound 0.8 µM): 0.232 | relative viability (NCI-H838; first compound 2.53 µM): 0.224 | relative viability (NCI-H838; first compound 8 µM): 0.21 | relative viability (NCI-H1915; first compound 0.08 µM): 0.543 | relative viability (NCI-H1915; first compound 0.8 µM): 0.56 | relative viability (NCI-H1915; first compound 2.53 µM): 0.583 | relative viability (NCI-H1915; first compound 8 µM): 0.522 | relative viability (NCI-H2085; first compound 0.08 µM): 0.441 | relative viability (NCI-H2085; first compound 0.8 µM): 0.464 | relative viability (NCI-H2085; first compound 2.53 µM): 0.502 | relative viability (NCI-H2085; first compound 8 µM): 0.469 | relative viability (H3255; first compound 0.08 µM): 0.324 | relative viability (H3255; first compound 0.8 µM): 0.347 | relative viability (H3255; first compound 2.53 µM): 0.328 | relative viability (H3255; first compound 8 µM): 0.295 | relative viability (NCI-H1792; first compound 0.08 µM): 0.625 | relative viability (NCI-H1792; first compound 0.8 µM): 0.719 | relative viability (NCI-H1792; first compound 2.53 µM): 0.723 | relative viability (NCI-H1792; first compound 8 µM): 0.766 | relative viability (RERF-LC-KJ; first compound 0.08 µM): 1.15 | relative viability (RERF-LC-KJ; first compound 0.8 µM): 1.15 | relative viability (RERF-LC-KJ; first compound 2.53 µM): 1.24 | relative viability (RERF-LC-KJ; first compound 8 µM): 0.979 | relative viability (UMC-11; first compound 0.08 µM): 0.337 | relative viability (UMC-11; first compound 0.8 µM): 0.36 | relative viability (UMC-11; first compound 2.53 µM): 0.323 | relative viability (UMC-11; first compound 8 µM): 0.37 | relative viability (NCI-H1651; first compound 0.08 µM): 0.503 | relative viability (NCI-H1651; first compound 0.8 µM): 0.543 | relative viability (NCI-H1651; first compound 2.53 µM): 0.547 | relative viability (NCI-H1651; first compound 8 µM): 0.488 | relative viability (PC-3 [JPC-3]; first compound 0.08 µM): 0.518 | relative viability (PC-3 [JPC-3]; first compound 0.8 µM): 0.543 | relative viability (PC-3 [JPC-3]; first compound 2.53 µM): 0.571 | relative viability (PC-3 [JPC-3]; first compound 8 µM): 0.511 | relative viability (A-427; first compound 0.08 µM): 0.525 | relative viability (A-427; first compound 0.8 µM): 0.563 | relative viability (A-427; first compound 2.53 µM): 0.526 | relative viability (A-427; first compound 8 µM): 0.496 | relative viability (ABC-1; first compound 0.08 µM): 0.752 | relative viability (ABC-1; first compound 0.8 µM): 0.664 | relative viability (ABC-1; first compound 2.53 µM): 0.733 | relative viability (ABC-1; first compound 8 µM): 0.72

Source: the supplement of paper PMC10307832
